pIC50: −log10 of the molar value.
Target: P. falciparum apicoplast DNA polymerase (Pf-apPOL) (Plasmodium falciparum, UniProt Q8ILY1)
Assay: Fluorescence-based high-throughput DNA polymerase assay (molecular beacon), primary screen and dose-response;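 on % inhibition ApPOL 90': test concentration in µM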;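 on % inhibition apPOL 180': test concentration in µM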
Format: biochemical
Method in brief: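 Single-point screening used 10 µM compound with 20 nM polymerase, 20 nM hairpin substrate and 6 µM dNTPs for 90 min at 25 °C. Confirmatory titrations (2.5–80 µM) followed fluorescence at three times, and IC50 was derived from a fit including a cooperativity term n.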

[1] = primary screen value of the 186 hits; unit not given; 90 min, 10 µM

P. falciparum apicoplast DNA polymerase (Pf-apPOL), sequence (Q8ILY1 entry or part of it): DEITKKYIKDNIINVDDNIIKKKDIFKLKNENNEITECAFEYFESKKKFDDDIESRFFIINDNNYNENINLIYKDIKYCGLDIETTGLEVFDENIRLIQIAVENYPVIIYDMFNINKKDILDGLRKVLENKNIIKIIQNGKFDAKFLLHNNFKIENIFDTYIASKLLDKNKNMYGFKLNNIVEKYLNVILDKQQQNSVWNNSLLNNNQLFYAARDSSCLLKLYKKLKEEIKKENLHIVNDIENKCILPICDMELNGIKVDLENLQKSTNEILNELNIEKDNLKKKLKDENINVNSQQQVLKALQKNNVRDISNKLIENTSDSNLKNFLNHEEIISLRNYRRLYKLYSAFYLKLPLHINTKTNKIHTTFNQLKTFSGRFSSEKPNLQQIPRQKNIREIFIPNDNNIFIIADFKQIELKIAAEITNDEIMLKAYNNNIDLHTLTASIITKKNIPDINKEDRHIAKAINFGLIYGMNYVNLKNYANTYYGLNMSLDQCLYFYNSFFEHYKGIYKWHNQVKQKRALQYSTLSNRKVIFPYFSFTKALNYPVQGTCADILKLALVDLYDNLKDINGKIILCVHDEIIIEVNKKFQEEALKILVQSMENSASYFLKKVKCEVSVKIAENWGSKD

SMILES: O=C(Cc1cccs1)N1CCN(c2nc(CN3CCOCC3)cs2)CC1 [Molecule 35, O=C(N1CCN(CC1)c1scc(n1)CN1CCOCC1)Cc1cccs1]
- % inhibition Apo pol 10' (DRC-1; concentration 2.5; 10'): -2.34%
- % inhibition Apol 90' (DRC-1; concentration 2.5; 90'): -6%
- % inhibition apPOL 180' (DRC-1; concentration 2.5; 180'): -10%
- % inhibition Apo pol 10' (DRC-1; concentration 5; 10'): 14%
- % inhibition Apol 90' (DRC-1; concentration 5; 90'): 6.43%
- % inhibition apPOL 180' (DRC-1; concentration 5; 180'): -2.23%
- % inhibition Apo pol 10' (DRC-1; concentration 10; 10'): 46%
- % inhibition Apol 90' (DRC-1; concentration 10; 90'): 34%
- % inhibition apPOL 180' (DRC-1; concentration 10; 180'): 19%
- % inhibition Apo pol 10' (DRC-1; concentration 20; 10'): 76%
- % inhibition Apol 90' (DRC-1; concentration 20; 90'): 68%
- % inhibition apPOL 180' (DRC-1; concentration 20; 180'): 53%
- % inhibition Apo pol 10' (DRC-1; concentration 40; 10'): 83%
- % inhibition Apol 90' (DRC-1; concentration 40; 90'): 83%
- % inhibition apPOL 180' (DRC-1; concentration 40; 180'): 81%
- % inhibition Apo pol 10' (DRC-1; concentration 80 (unit not given); 10'): 83%
- % inhibition Apol 90' (DRC-1; concentration 80; 90'): 86%
- % inhibition apPOL 180' (DRC-1; concentration 80; 180'): 88%
- % inhibition Apo pol 5' (DRC-2; 5'; concentration 2.5): 8%
- % inhibition Apo pol 5' (DRC-2; 5'; concentration 5): 19%
- % inhibition Apo pol 5' (DRC-2; 5'; concentration 10): 35%
- % inhibition Apo pol 5' (DRC-2; 5'; concentration 40): 46%
- % inhibition Apo pol 5' (DRC-2; 5'; concentration 80): 35%
- % inhibition ApPOL 90' (DRC-2; 90'; concentration 2.5): 8%
- % inhibition ApPOL 90' (DRC-2; 90'; concentration 40): 69%
- % inhibition apPOL 180' (DRC-2; 180'; concentration 40): 69%
- % inhibition Apo pol 5' (DRC-2; concentration 2.5; 5'): 8%
- % inhibition Apol 40' (DRC-2; concentration 2.5; 40'): 9%
- % inhibition ApPOL 90' (DRC-2; concentration 2.5; 90'): 8%
- % inhibition apPOL 180' (DRC-2; concentration 2.5; 180'): 1.49%
- % inhibition Apo pol 5' (DRC-2; concentration 5; 5'): 19%
- % inhibition Apol 40' (DRC-2; concentration 5; 40'): 22%
- % inhibition ApPOL 90' (DRC-2; concentration 5; 90'): 20%
- % inhibition apPOL 180' (DRC-2; concentration 5; 180'): 13%
- % inhibition Apo pol 5' (DRC-2; concentration 10; 5'): 35%
- % inhibition Apol 40' (DRC-2; concentration 10; 40'): 43%
- % inhibition ApPOL 90' (DRC-2; concentration 10; 90'): 41%
- % inhibition apPOL 180' (DRC-2; concentration 10; 180'): 31%
- % inhibition Apo pol 5' (DRC-2; concentration 20; 5'): 45%
- % inhibition Apol 40' (DRC-2; concentration 20; 40'): 61%
- % inhibition ApPOL 90' (DRC-2; concentration 20; 90'): 62%
- % inhibition apPOL 180' (DRC-2; concentration 20; 180'): 56%
- % inhibition Apo pol 5' (DRC-2; concentration 40; 5'): 46%
- % inhibition Apol 40' (DRC-2; concentration 40; 40'): 64%
- % inhibition ApPOL 90' (DRC-2; concentration 40; 90'): 69%
- % inhibition apPOL 180' (DRC-2; concentration 40; 180'): 69%
- % inhibition Apo pol 5' (DRC-2; concentration 80; 5'): 35%
- % inhibition Apol 40' (DRC-2; concentration 80; 40'): 59%
- % inhibition ApPOL 90' (DRC-2; concentration 80; 90'): 65%
- % inhibition apPOL 180' (DRC-2; concentration 80; 180'): 70%
- % inhibition Apo pol 10' (first dose-response set; 10'; concentration 10): 46%
- % inhibition Apo pol 10' (first dose-response set; 10'; concentration 40): 83%
- % inhibition Apo pol 10' (first dose-response set; 10'; concentration 80 (unit not given)): 83%
- % inhibition Apol 90' (first dose-response set; 90'; concentration 40): 83%
- % inhibition apPOL 180' (first dose-response set; 180'; concentration 10): 19%
- DNA Pol [1]: 37
- DNA Pol (primary screen value; head prints only 'DNA Pol'; 90 min, 10 µM): 37

SMILES: O=C1NCCCn2cc(S(=O)(=O)Nc3ccccc3)cc21 [KU0214835]
- % inhibition Apo pol 10' (DRC-1; 10'; concentration 2.5): 3.062%
- % inhibition Apo pol 10' (DRC-1; 10'; concentration 5): 6.352%
- % inhibition Apo pol 10' (DRC-1; 10'; concentration 10): 23.7327%
- % inhibition Apo pol 10' (DRC-1; 10'; concentration 20): 40.9778%
- % inhibition Apo pol 10' (DRC-1; 10'; concentration 40): 76.8886%
- % inhibition Apo pol 10' (DRC-1; 10'; concentration 80): 90.7287%
- % inhibition Apol 90' (DRC-1; 90'; concentration 2.5): -1.959%
- % inhibition Apol 90' (DRC-1; 90'; concentration 5): -0.5686%
- % inhibition Apol 90' (DRC-1; 90'; concentration 10): 11.8703%
- % inhibition Apol 90' (DRC-1; 90'; concentration 20): 23.2222%
- % inhibition Apol 90' (DRC-1; 90'; concentration 40): 60.7318%
- % inhibition Apol 90' (DRC-1; 90'; concentration 80): 88.5247%
- % inhibition apPOL 180' (DRC-1; 180'; concentration 2.5): -6.967%
- % inhibition apPOL 180' (DRC-1; 180'; concentration 5): -5.597%
- % inhibition apPOL 180' (DRC-1; 180'; concentration 10): 2.257%
- % inhibition apPOL 180' (DRC-1; 180'; concentration 20): 8.277%
- % inhibition apPOL 180' (DRC-1; 180'; concentration 40): 41.6614%
- % inhibition apPOL 180' (DRC-1; 180'; concentration 80): 83.4683%
- % inhibition Apo pol 5' (DRC-2; 5'; concentration 2.5): 5.45%
- % inhibition Apo pol 5' (DRC-2; 5'; concentration 5): 8%
- % inhibition Apo pol 5' (DRC-2; 5'; concentration 10): 25%
- % inhibition Apo pol 5' (DRC-2; 5'; concentration 20): 44%
- % inhibition Apo pol 5' (DRC-2; 5'; concentration 40): 53%
- % inhibition Apo pol 5' (DRC-2; 5'; concentration 80): 50%
- % inhibition Apol 40' (DRC-2; 40'; concentration 2.5): 7%
- % inhibition Apol 40' (DRC-2; 40'; concentration 5): 8%
- % inhibition Apol 40' (DRC-2; 40'; concentration 10): 24%
- % inhibition Apol 40' (DRC-2; 40'; concentration 20): 48%
- % inhibition Apol 40' (DRC-2; 40'; concentration 40): 66%
- % inhibition Apol 40' (DRC-2; 40'; concentration 80): 70%
- % inhibition ApPOL 90' (DRC-2; 90'; concentration 2.5): 5.66%
- % inhibition ApPOL 90' (DRC-2; 90'; concentration 5): 7%
- % inhibition ApPOL 90' (DRC-2; 90'; concentration 10): 21%
- % inhibition ApPOL 90' (DRC-2; 90'; concentration 20): 44%
- % inhibition ApPOL 90' (DRC-2; 90'; concentration 40): 66%
- % inhibition ApPOL 90' (DRC-2; 90'; concentration 80): 74%
- % inhibition apPOL 180' (DRC-2; 180'; concentration 2.5): 2%
- % inhibition apPOL 180' (DRC-2; 180'; concentration 5): 3.52%
- % inhibition apPOL 180' (DRC-2; 180'; concentration 10): 14%
- % inhibition apPOL 180' (DRC-2; 180'; concentration 20): 31%
- % inhibition apPOL 180' (DRC-2; 180'; concentration 40): 59%
- % inhibition apPOL 180' (DRC-2; 180'; concentration 80): 76%
- % inhibition Apol 40' (conc. 2.5; 40'; DRC-2): 7%
- % inhibition Apo pol 5' (conc. 5; 5'; DRC-2): 8%
- % inhibition Apol 40' (conc. 5; 40'; DRC-2): 8%
- % inhibition ApPOL 90' (conc. 5; 90'; DRC-2): 7%
- % inhibition Apo pol 5' (conc. 20; 5'; DRC-2): 44%
- % inhibition ApPOL 90' (conc. 20; 90'; DRC-2): 44%
- % inhibition Apol 40' (conc. 40; 40'; DRC-2): 66%
- % inhibition ApPOL 90' (conc. 40; 90'; DRC-2): 66%
- DNA Pol (primary screen value by plate and well; 90 min, 10 µM): 21
- DNA Pol [1]: 21

SMILES: COc1cc(Cl)c(C)cc1NC(=O)Cn1ccc2c(=O)[nH]ccc21 [Molecule 33]
- pIC50 (supplemental file 2, sheet IC50 nontoxic compounds; Pf-apPOL): 4.99

SMILES: CCCCSc1nnc2c(n1)OC(c1ccc([N+](=O)[O-])o1)Nc1ccccc1-2 (centres unmarked) [KU0065811]
- % inhibition Apo pol 10' (DRC-1; 10'; concentration 2.5): 24.76%
- % inhibition Apo pol 10' (DRC-1; 10'; concentration 5): 28.8752%
- % inhibition Apo pol 10' (DRC-1; 10'; concentration 10): 64.0477%
- % inhibition Apo pol 10' (DRC-1; 10'; concentration 20): 79.0403%
- % inhibition Apo pol 10' (DRC-1; 10'; concentration 40): 87.9065%
- % inhibition Apo pol 10' (DRC-1; 10'; concentration 80): 83.2493%
- % inhibition Apol 90' (DRC-1; 90'; concentration 2.5): 16.1067%
- % inhibition Apol 90' (DRC-1; 90'; concentration 5): 15.8932%
- % inhibition Apol 90' (DRC-1; 90'; concentration 10): 47.3098%
- % inhibition Apol 90' (DRC-1; 90'; concentration 20): 63.8014%
- % inhibition Apol 90' (DRC-1; 90'; concentration 40): 80.4903%
- % inhibition Apol 90' (DRC-1; 90'; concentration 80): 83.7363%
- % inhibition apPOL 180' (DRC-1; 180'; concentration 2.5): 8.192%
- % inhibition apPOL 180' (DRC-1; 180'; concentration 5): 3.59%
- % inhibition apPOL 180' (DRC-1; 180'; concentration 10): 30.0435%
- % inhibition apPOL 180' (DRC-1; 180'; concentration 20): 48.0622%
- % inhibition apPOL 180' (DRC-1; 180'; concentration 40): 73.3106%
- % inhibition apPOL 180' (DRC-1; 180'; concentration 80): 82.0141%
- % inhibition Apol 40' (DRC-2, 40', concentration 5 (unit not given)): 36%
- % inhibition Apol 40' (DRC-2, 40', concentration 20 (unit not given)): 59%
- % inhibition ApPOL 90' (DRC-2, 90', concentration 20 (unit not given)): 59%
- % inhibition Apo pol 5' (DRC-2; 5'; concentration 2.5): 27%
- % inhibition Apo pol 5' (DRC-2; 5'; concentration 5): 36%
- % inhibition Apo pol 5' (DRC-2; 5'; concentration 5 (unit not given)): 36%
- % inhibition Apo pol 5' (DRC-2; 5'; concentration 10): 51%
- % inhibition Apo pol 5' (DRC-2; 5'; concentration 20): 47%
- % inhibition Apo pol 5' (DRC-2; 5'; concentration 40): 37%
- % inhibition Apo pol 5' (DRC-2; 5'; concentration 80): 13%
- % inhibition Apol 40' (DRC-2; 40'; concentration 2.5): 25%
- % inhibition Apol 40' (DRC-2; 40'; concentration 5): 36%
- % inhibition Apol 40' (DRC-2; 40'; concentration 10): 55%
- % inhibition Apol 40' (DRC-2; 40'; concentration 20): 59%
- % inhibition Apol 40' (DRC-2; 40'; concentration 40): 57%
- % inhibition Apol 40' (DRC-2; 40'; concentration 80): 42%
- % inhibition ApPOL 90' (DRC-2; 90'; concentration 2.5): 22%
- % inhibition ApPOL 90' (DRC-2; 90'; concentration 5): 32%
- % inhibition ApPOL 90' (DRC-2; 90'; concentration 10): 52%
- % inhibition ApPOL 90' (DRC-2; 90'; concentration 20): 59%
- % inhibition ApPOL 90' (DRC-2; 90'; concentration 40): 62%
- % inhibition ApPOL 90' (DRC-2; 90'; concentration 80): 50%
- % inhibition apPOL 180' (DRC-2; 180'; concentration 2.5): 11%
- % inhibition apPOL 180' (DRC-2; 180'; concentration 5): 19%
- % inhibition apPOL 180' (DRC-2; 180'; concentration 10): 41%
- % inhibition apPOL 180' (DRC-2; 180'; concentration 20): 53%
- % inhibition apPOL 180' (DRC-2; 180'; concentration 40): 64%
- % inhibition apPOL 180' (DRC-2; 180'; concentration 80): 58%
- DNA Pol [1]: 52
- DNA Pol (primary screen value, head "DNA Pol", unit not given; 90 min, 10 µM): 52
